Laboratory results: patent publication US20190322643A1 (Georgia State University Research Foundation, Inc., priority 2016, published 2019)
Like-named read-outs stand apart in the source and are kept apart here.

Key:
HDAC [1] = experiment: Cell based homogenous HDAC assay, K562; details: read-out: IC50-HDAC K562; K562 cells, mean ± SD of triplicate
Description: (§5) After 24 h, 9 μl inhibitors with different concentration were added to the HeLa cells and incubation was continued for 3 h under cell culture conditions. After this treatment period, 10 μl of a 2 mM stock solution of the substrate Boc-K(Ac)-AMC was added into the 96 well plates with Hela cells and inhibitors. […] A549 and K562 cell lines used the same method, respectively. IC50s were calculated using GraphPad Prizm statistical package with sigmoidal variable slope dose response curve fit.
(§6) Boc-K(Ac)-AMC was used as a cell-permeable HDAC substrate, as after deacetylation it is cleaved by trypsin to release the florescent 7-amino-4-methylcoumarin (AMC).

HEK293 = experiment: Toxicity assay (CCK-8) in control non-cancerous cell line; type: cell-based
Description: (§1) A549, MDA-MB-231, HCT-8, MCF-7, and HEK293 cells were seeded at 8000-10000 cells (100 μl) in white 96-well plates and pre-incubate the plate for 24 h under standard cell culture conditions, respectively. Then the cells were exposed to the different inhibitors with various concentrations for 72 h. Finally, 10 μl of CCK-8 kit solution was added to each well and incubated for 3-4 hours under standard cell culture conditions, and the 96 well plates were measured the absorbance at 450 nm using Perkin-Elmer Wallac Victor ^3V 1420 multi label plate reader (Perkin-Elmer, Wellesley, USA). EC50s were calculated using GraphPad Prizm statistical package with sigmoidal variable slope dose response curve fit.
(§2) Cell anti-proliferation assays were performed to determine the toxicity of these inhibitors. Several cell lines (MDA-MB-231, MCF-7, A549 and HCT-8) were incubated and then treated with varying concentrations of the inhibitors for 72 h, respectively. […] These compounds were further evaluated against the control cell line HEK293 to test their toxicity with a non-cancerous cell line.

[2] = target: T1, Mouse histone methyltransferase G9a (969-1263) (Mus musculus, UniProt Q9Z148); experiment: MALDI-TOF methylation study of G9a inhibition; type: biochemical; details: inhibitors at 5 μM concentration for 30 min
T1 construct: The 6His-sumo mG9a (969-1263) protein was purified using the following procedure; 6His-sumo (cleaved yes); made in house; host or cells: Escherichia coli BL21 (DE3)
T1 sequence (Q9Z148 969-1263): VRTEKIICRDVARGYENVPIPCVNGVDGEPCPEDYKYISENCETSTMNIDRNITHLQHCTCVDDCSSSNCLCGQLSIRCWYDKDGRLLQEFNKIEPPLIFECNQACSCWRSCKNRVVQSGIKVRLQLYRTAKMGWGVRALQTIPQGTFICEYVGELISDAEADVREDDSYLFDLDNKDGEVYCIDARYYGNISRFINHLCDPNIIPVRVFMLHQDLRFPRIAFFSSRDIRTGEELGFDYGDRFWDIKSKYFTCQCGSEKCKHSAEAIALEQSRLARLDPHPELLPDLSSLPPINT
Description: Mouse histone methyltransferase G9a (969-1263) cDNA was amplified from the cDNA of BALB/c mouse thymus, and the fragment was sub-cloned into a vector with a 6His-sumo tag. […] The 6His-sumo mG9a (969-1263) protein was purified using the following procedure: harvested cell pellet was re-suspended in 20 mM Tris (pH 8.0), 500 mM NaCl, 0.1% β-mercaptoethanol, and 1 mM PMSF. Cells were lysed by sonicating for 15 seconds with 6 second intervals for a total time of 15 minutes on an ice bath. […] The 6His-sumo tag was cleaved from the column by adding Ubiquitin-like-specific protease 1 (ULP-1) at 4° C. for 12 hours. Wash buffer was then run through the Ni^+ column again and the elution buffer collected. Subsequently, advanced protein purification was done by HiTrap Q HP sequential Superdex 200 10/300 GL. Elute of every step was analyzed by SDS PAGE, stained by Coomassie brilliant blue (CBB). […] The reaction was incubated at room temperature for 30 min, and stopped by TFA. 1 μL of the sample was mixed with CHCA matrix and m/z peaks were obtained at reflection positive mode. The results of mass spectrum were analyzed using the Bruker flex analysis software and data processing was carried out as described below. MALDI-TOF based experiments were performed according to the protocol developed by Chang et al. (Nat. Struct. Mol. Biol. 2009, 16, 312-317). MALDI spectra were collected using Bruker flex control software and analyzed by flex analysis. After labelling each cluster peaks of H3K9Me0, H3K9Me1 and H3K9Me2 for all of the tested concentrations, area under the cluster (AUC) were extracted by using the same flex analysis software. % abundance of each peak was calculated by following formula: A=% Abundance of (H3K9Me0)=area of H3K9Me0/(area of H3K9Me0+area of H3K9Me1+area of H3K9Me2) B=% Abundance of (H3K9Me1)=area of H3K9Me1/(area of H3K9Me0+area of H3K9Me1+area of H3K9Me2) C=% Abundance of (H3K9Me2)=area of H3K9Me2/(area of H3K9Me0+area of H3K9Me1+area of H3K9Me2). This was repeated for each spectra (3 multiples for each samples). […] Finally % inhibition was found by subtracting % MA(i) from 100. […] A biochemical assay using MALDI-TOF was used to visualize the effects of the synthesized compounds on G9a enzymatic activity. […] Struct. Mol. Biol. 2009, 16, 312-317).

MDA-MB-231 = experiment: Cytotoxicity / anti-proliferation assay (CCK-8), MDA-MB-231; type: cell-based; details: Homo sapiens
Description: as §1, §2

HDAC [3] = experiment: Cell based homogenous HDAC assay, A549; details: read-out: IC50-HDAC A549; A549 cells, mean ± SD of triplicate
Description: as §5, §6

HDAC [4] = experiment: Cell based homogenous HDAC assay, Hela; details: read-out: IC50-HDAC Hela; Hela cells, mean ± SD of triplicate
Description: as §5, §6

A549 = experiment: Cytotoxicity / anti-proliferation assay (CCK-8), A549; type: cell-based; details: Homo sapiens, 72 h, CCK-8 kit
Description: (§3) Then the cells were exposed to the different inhibitors with various concentrations for 72 h. […] EC50s were calculated using GraphPad Prizm statistical package with sigmoidal variable slope dose response curve fit.
(§4) Cell anti-proliferation assays were performed to determine the toxicity of these inhibitors. […] These compounds were further evaluated against the control cell line HEK293 to test their toxicity with a non-cancerous cell line.

G9a = target: T2, G9a (Homo sapiens, UniProt Q96KQ7); experiment: H3K9Me2 cell immunofluorescence in-cell Western (ICW) assay; type: cell-based; details: MDA-MB-231 cell line, 48 h
T2 construct: endogenous in cells; host or cells: MDA-MB-231
T2 sequence (Q96KQ7 1-1210): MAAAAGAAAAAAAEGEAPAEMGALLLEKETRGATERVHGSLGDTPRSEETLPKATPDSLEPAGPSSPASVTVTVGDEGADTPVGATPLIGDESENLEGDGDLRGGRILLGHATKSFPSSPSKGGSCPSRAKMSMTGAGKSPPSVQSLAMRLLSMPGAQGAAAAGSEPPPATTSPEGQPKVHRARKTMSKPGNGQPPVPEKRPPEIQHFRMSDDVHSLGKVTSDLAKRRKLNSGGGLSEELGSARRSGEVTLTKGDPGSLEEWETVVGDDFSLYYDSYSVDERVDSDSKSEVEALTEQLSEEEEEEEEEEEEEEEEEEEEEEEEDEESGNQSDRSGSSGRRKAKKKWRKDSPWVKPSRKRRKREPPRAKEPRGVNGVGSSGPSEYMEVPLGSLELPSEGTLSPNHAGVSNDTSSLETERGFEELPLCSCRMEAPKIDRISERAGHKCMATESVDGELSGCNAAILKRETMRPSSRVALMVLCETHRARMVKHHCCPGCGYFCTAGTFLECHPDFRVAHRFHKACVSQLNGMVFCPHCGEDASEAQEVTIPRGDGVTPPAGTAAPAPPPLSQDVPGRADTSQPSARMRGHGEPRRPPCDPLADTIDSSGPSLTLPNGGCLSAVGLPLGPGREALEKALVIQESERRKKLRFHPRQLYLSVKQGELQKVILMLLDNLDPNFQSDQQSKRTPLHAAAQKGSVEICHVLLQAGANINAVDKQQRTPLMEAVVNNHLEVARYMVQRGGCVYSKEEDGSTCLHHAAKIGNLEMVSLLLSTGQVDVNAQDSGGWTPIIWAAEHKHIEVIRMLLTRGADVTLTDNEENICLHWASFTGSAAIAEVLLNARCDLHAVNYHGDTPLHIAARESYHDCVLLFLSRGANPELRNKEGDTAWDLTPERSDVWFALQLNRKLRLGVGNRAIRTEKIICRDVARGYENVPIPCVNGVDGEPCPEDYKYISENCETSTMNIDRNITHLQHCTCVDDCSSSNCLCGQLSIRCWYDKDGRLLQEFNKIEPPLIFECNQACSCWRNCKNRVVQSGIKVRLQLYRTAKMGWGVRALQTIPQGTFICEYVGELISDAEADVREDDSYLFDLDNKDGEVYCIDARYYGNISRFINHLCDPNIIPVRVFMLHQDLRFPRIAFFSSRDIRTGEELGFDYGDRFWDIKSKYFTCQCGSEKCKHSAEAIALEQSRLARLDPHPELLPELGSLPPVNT
Description: After the incubation, the media was removed and 100 μl fixation and permeabilization solution (2% formaldehyde in PBS) for fixation was added for 30 min. And then use 200 μl 0.1% Triton X100 in PBS washing solution to wash (allow wash to shake on a plate shaker for 5 minutes). After five washes, cells were blocked for 1 h with 150 μl blocking buffer to each well (1% BSA in PBS) (allow blocking at RT with moderate shaking on a plate shaker). After 1 h, remove the blocking buffer from the blocking step and add primary antibody in blocking buffer to cover the bottom of each well. […] The plates were read on an Odyssey CLX (LiCor) scanner at both 800 nm (H3K9me2 signal) and 700 nm (cell tag 700 stain signal) channels. IC50s were calculated using GraphPad Prizm statistical package with sigmoidal variable slope dose response curve fit.

HCT-8 = experiment: Cytotoxicity / anti-proliferation assay (CCK-8), HCT-8; type: cell-based; details: Homo sapiens, 72 h, CCK-8 kit
Description: as §3, §4

[5] = alone or as 1:1 mixture, 1-100 μM, read-out: EC50 value

Row | IC50 (HDAC [1]) [µM] | inhibition at 5 µM [2] [%] | IC50 (HDAC [3]) [µM] | IC50 (HDAC [4]) [µM] | IC50 (G9a) [µM] | Structure (SMILES) | toxicity in normal cell line (HEK293) | EC50 (MDA-MB-231; [5]) [µM] | EC50 (A549) [µM] | EC50 (HCT-8) [µM] | EC50 (MDA-MB-231; 72 h, CCK-8 kit, read-out: EC50 MDA-MB-231) [µM]
1 | > 100 | 77.7 ± 5.73 | > 100 | > 100 | – | COc1cc2nc(N3CCCN(C)CC3)nc(NC3CCN(Cc4ccccc4)CC3)c2cc1OC.Cl.Cl.Cl [BIX-01294, 2-(hexahydro-4-methyl-1H-1,4-diazepin-1-yl)-6,7-dimethoxy-N-[1-(phenylmethyl)-4-piperidinyl]-4-quinazolinamine trihydrochloride, reference compound] | toxic | 2.16 ± 0.88 | – | – | –
2 | > 100 | 47.5 ± 9.32 | > 100 | > 100 | 66.6 ± 3.98 | COc1cc2nc(NCCNC(=O)CCCCCC(=O)NO)nc(NC3CCN(C(C)C)CC3)c2cc1OC [Compound 5a, N1-hydroxy-N7-(2-((4-((1-isopropylpiperidin-4-yl)amino)-6,7-dimethoxyquinazolin-2-yl)amino)ethyl)heptanediamide] | – | – | > 100 | > 100 | –
3 | > 100 | 26.6 ± 11.3 | > 100 | > 100 | > 100 | COc1cc2nc(NCCNC(=O)CCCCC(=O)NO)nc(NC3CCN(C)CC3)c2cc1OC [Compound 6, N1-(2-((6,7-dimethoxy-4-((1-methylpiperidin-4-yl)amino)quinazolin-2-yl)amino)ethyl)-N6-hydroxyadipamide] | – | – | > 100 | > 100 | –
4 | > 100 | 50.6 ± 16.5 | > 100 | > 100 | > 100 | COc1cc2nc(NCCNC(=O)CCCCC(=O)NO)nc(NC3CCN(C(C)C)CC3)c2cc1OC [Compound 6a, N1-hydroxy-N6-(2-((4-((1-isopropylpiperidin-4-yl)amino)-6,7-dimethoxyquinazolin-2-yl)amino)ethyl)adipamide] | – | – | > 100 | > 100 | –
5 | > 100 | 19.6 ± 20.9 | > 100 | > 100 | 76.7 ± 0.89 | COc1cc2nc(NCCNC(=O)CCCC(=O)NO)nc(NC3CCN(C)CC3)c2cc1OC [Compound 7, N1-(2-((6,7-dimethoxy-4-((1-methylpiperidin-4-yl)amino)quinazolin-2-yl)amino)ethyl)-N5-hydroxyglutaramide] | – | – | > 100 | > 100 | –
6 | > 100 | 15 ± 15.7 | > 100 | > 100 | 54.6 ± 3.05 | COc1cc2nc(NCCNC(=O)CCCC(=O)NO)nc(NC3CCN(C(C)C)CC3)c2cc1OC [Compound 7a, N1-hydroxy-N5-(2-((4-((1-isopropylpiperidin-4-yl)amino)-6,7-dimethoxyquinazolin-2-yl)amino)ethyl)glutaramide] | – | – | > 100 | > 100 | –
7 | > 100 | 35.6 ± 0.88 | > 100 | > 100 | 27.4 ± 3.59 | COc1cc2c(NC3CCN(C(C)C)CC3)nc(N3CCCN(C)CC3)nc2cc1OCCCCCCC(=O)NO [Compound 26, N-hydroxy-7-((4-((1-isopropylpiperidin-4-yl)amino)-6-methoxy-2-(4-methyl-1,4-diazepan-1-yl)quinazolin-7-yl)oxy)heptanamide] | – | – | > 100 | > 100 | –
8 | – | – | – | – | – | O=C(CCCCCCC(=O)Nc1ccccc1)NO [SAHA, N-hydroxy-N′-phenyl-octanediamide] | toxic | 2.87 ± 0.84 | – | – | 2.87 ± 0.84
